Data as given in paper PMC2852483 (Molecular cancer therapeutics, 2010).
Numbered stars: 1 amine (or outer) side, 2 acyl side, 3 side chain; on linkers, the order of the positions; unused ones are H or OH. Square brackets hold non-standard residues; d marks the D form. Side chains are listed from the residue outwards. Peptide text beside a SMILES is read from it. * marks the point of attachment. NOTA(2S-Bn(4-NHCS)) = O=C(O)CN1CCN(CC(=O)O)C[C@H](Cc2ccc(NC(=S)*)cc2)N(CC(=O)O)CC1; NH(2-(imidazol-4-yl)ethyl) = c1ncc(CCN*)[nH]1; Suc = O=C(CCC(=O)[*:2])[*:1]

Legend:
[1] = design: species or system nude BALB/c mice; settings: mouse, in vivo, 5 MBq
[2] = test system: s.c. CEA-expressing LS174T tumor; design: species or system nude BALB/c mice; settings: mouse

| tissue uptake [1] [%ID/g] | stability in vivo [2] | tumor uptake in non-pretargeted mice ([2]; in vivo) [% ID/g] | Structure (SMILES) |
| --- | --- | --- | --- |
| 0.54 ± 0.2 | – | – | C[C@@H](NC(=S)Nc1ccc(C[C@H]2CN(CC(=O)O)CCN(CC(=O)O)CCN2CC(=O)O)cc1)C(=O)N[C@H](CCCCNC(=O)CNC(=O)CCC(=O)NCCc1c[nH]cn1)C(=O)N[C@H](Cc1ccc(O)cc1)C(=O)N[C@H](CCCCNC(=O)CNC(=O)CCC(=O)NCCc1c[nH]cn1)C(N)=O [IMP-449] ({NOTA(2S-Bn(4-NHCS))}-[dA][dK]([Gly-Suc-NH(2-(imidazol-4-yl)ethyl)])[dY][dK]([Gly-Suc-NH(2-(imidazol-4-yl)ethyl)])-NH2; N-terminus and C-terminus assumed) |
| – | stable in vivo | 0.45 ± 0.38 | C[C@@H](NC(=S)Nc1ccc(C[C@H]2CN(CC(=O)O)CCN(CC(=O)O)CCN2CC(=O)O)cc1)C(=O)N[C@H](CCCCNC(=O)CNC(=O)CCC(=O)NCCc1c[nH]cn1)C(=O)N[C@H](Cc1ccc(O)cc1)C(=O)N[C@H](CCCCNC(=O)CNC(=O)CCC(=O)NCCc1c[nH]cn1)C(N)=O [^18F-IMP-449] ({NOTA(2S-Bn(4-NHCS))}-[dA][dK]([Gly-Suc-NH(2-(imidazol-4-yl)ethyl)])[dY][dK]([Gly-Suc-NH(2-(imidazol-4-yl)ethyl)])-NH2; N-terminus and C-terminus assumed) |
